# In publication PMC1971528, “Pharmacokinetic studies with the antifolate C2-desamino-C2-methyl-N10-propargyl-2'-trifluoromethyl-5,8-dideazafolic acid (CB3988) in mice and rats using in vivo 19F-NMR spectroscopy” (British Journal of Cancer, 1990):
# Read-outs that look alike come from different tables or passages of the source.
# Experiments:
# [1] = mice, ref Newell et al., cited from earlier work
# [2] = design: method as in Alison et al., 1985; Newell et al., 1986; settings: patients; ref Alison et al., 1985; Newell et al., 1986; cited from earlier work
# [3] = mice, 1986, cited from earlier work
# [4] = qualitative statement, no reference given; cited from earlier work
# [5] = Plasma pharmacokinetics and biliary/urinary excretion in rats by HPLC; type: in vivo; settings: 100 mg kg-1 i.v., CB3988 vs ICI 198583
# Source text: (§1) Br. J. Cancer (1990), 62, 766 772 ? Macmillan Press Ltd., 1990 Pharmacokinetic studies with the antifolate C2-desamino-C2-methyl-N10-propargyl-2'-trifluoromethyl-5,8-dideazafolic acid (CB3988) in mice and rats using in vivo '9F-NMR spectroscopy D.R. Newell', R.J. Maxwell2, G.M.F. Bisset', D.I. Jodrell' & J.R. Griffiths2 'Drug Development Section, Institute of Cancer Research, Sutton, Surrey SM2 SNG; and 2CRC Biomedical NMR Group, St George's Hospital Medical School, Tooting, London SW] 7 ORE, UK. Summary In vivo '9F-NMR spectroscopy has been used to study the pharmacokinetics of the experimental antifolate drug CB3988 (C2-desamino-C2-methyl-N'0-propargyl-2'trifluoromethyl-5,8-dideazafolic acid) in mice and rats. NMR results have been compared to those obtained by HPLC and the effect of the inclusion of the CF3 group evaluated by comparing the pharmacokinetics of CB3988 and ICI 198583 (C2-desamino-C2-methyl- N'?-propargyl-5,8-dideazafolic acid) in rats. In mice, following the administration of CB3988 (500 mg kg-' i.v.), drug could be detected in both the upper and the lower abdomen. […] Signal detected in the lower abdomen reached maximum intensity 60-90 min after treatment. […] In the preclinical setting such measurements are usually performed using radio- chemicals and either autoradiographic or quantitative tissue distribution studies (Siddik & Newell, 1988). […]
# [6] = Acute toxicity in rats; type: in vivo; settings: 100 mg kg-1 i.v.
# Source text: as §1
# [7] = cited from earlier work
# [8] = Acute toxicity in mice; type: in vivo; settings: 500 mg kg-1 i.v.
# Source text: as §1
# [9] = In vivo 19F-NMR spectroscopy of CB3988 in mice; settings: 500 mg kg-1 i.v.
# Source text: (§2) Br. J. Cancer (1990), 62, 766 772 ? Macmillan Press Ltd., 1990 Pharmacokinetic studies with the antifolate C2-desamino-C2-methyl-N10-propargyl-2'-trifluoromethyl-5,8-dideazafolic acid (CB3988) in mice and rats using in vivo '9F-NMR spectroscopy D.R. Newell', R.J. Maxwell2, G.M.F. Bisset', D.I. Jodrell' & J.R. Griffiths2 'Drug Development Section, Institute of Cancer Research, Sutton, Surrey SM2 SNG; and 2CRC Biomedical NMR Group, St George's Hospital Medical School, Tooting, London SW] 7 ORE, UK. Summary In vivo '9F-NMR spectroscopy has been used to study the pharmacokinetics of the experimental antifolate drug CB3988 (C2-desamino-C2-methyl-N'0-propargyl-2'trifluoromethyl-5,8-dideazafolic acid) in mice and rats. NMR results have been compared to those obtained by HPLC and the effect of the inclusion of the CF3 group evaluated by comparing the pharmacokinetics of CB3988 and ICI 198583 (C2-desamino-C2-methyl- N'?-propargyl-5,8-dideazafolic acid) in rats. In mice, following the administration of CB3988 (500 mg kg-' i.v.), drug could be detected in both the upper and the lower abdomen. […] Signal detected in the lower abdomen reached maximum intensity 60-90 min after treatment. […] When the pharmacokinetics of CB3988 and ICI 198583 were compared the only significant difference was in the alpha phase half life which was 2-fold faster for CB3988. […] This is in contrast to N'?-propargyl-5,8-dideazafolic acid, where delayed excretion is associated with hepatic and renal toxicities. The ability to study CB3988 pharmacokinetics non-invasively by '9F-NMR spectroscopy confirms the utility of the technique and, since '9F-NMR can be applied directly to clinical investigations, it may be possible to obtain similar information in humans. It is now accepted that pharmacokinetics are an important determinant of both the activity and toxicity of anticancer drugs (Newell, 1989). This acceptance has led to the inclusion of pharmacokinetic studies in both the preclinical and early clinical evaluation of the majority of novel antitumour agents with two broad aims in mind. Firstly, the studies may be of direct clinical relevance in determining dose escalation during phase I studies (Collins et al., 1986; EORTC PAM Group, 1987) and secondly the information gained may be of value in interpreting both the toxicity and activity of the com- pound. This latter information can in turn be used to develop either new drugs or drug schedules which maximise the therapeutic potential of the agent. In order to conduct pharmacokinetic studies it is necessary to have a method which can accurately and selectively measure levels of the drug and its metabolites in biological fluids and tissues. Ideally the method should allow studies on drug levels in tumour deposits and in sensitive normal tissues since these are more likely to correlate with activity and toxicity than are levels in plasma or urine. In the preclinical setting such measurements are usually performed using radio- chemicals and either autoradiographic or quantitative tissue distribution studies (Siddik & Newell, 1988). However, in patients ethical and clinical considerations restrict the use of radioactive tracers and routine sampling of tumour or nor- mal tissue is not practicable. […] Using physiological pharmaco- kinetic modelling it is possible to extract some tissue distribu- tion information from such data although there is always considerable uncertainty attached to the results because of interpatient variation. […]
# [10] = Quantitative tissue distribution of CB3988 in mice by HPLC; type: in vivo; settings: 500 mg kg-1 i.v.
# Source text: Br. J. Cancer (1990), 62, 766 772 ? Macmillan Press Ltd., 1990 Pharmacokinetic studies with the antifolate C2-desamino-C2-methyl-N10-propargyl-2'-trifluoromethyl-5,8-dideazafolic acid (CB3988) in mice and rats using in vivo '9F-NMR spectroscopy D.R. Newell', R.J. Maxwell2, G.M.F. Bisset', D.I. Jodrell' & J.R. Griffiths2 'Drug Development Section, Institute of Cancer Research, Sutton, Surrey SM2 SNG; and 2CRC Biomedical NMR Group, St George's Hospital Medical School, Tooting, London SW] 7 ORE, UK. Summary In vivo '9F-NMR spectroscopy has been used to study the pharmacokinetics of the experimental antifolate drug CB3988 (C2-desamino-C2-methyl-N'0-propargyl-2'trifluoromethyl-5,8-dideazafolic acid) in mice and rats. NMR results have been compared to those obtained by HPLC and the effect of the inclusion of the CF3 group evaluated by comparing the pharmacokinetics of CB3988 and ICI 198583 (C2-desamino-C2-methyl- N'?-propargyl-5,8-dideazafolic acid) in rats. In mice, following the administration of CB3988 (500 mg kg-' i.v.), drug could be detected in both the upper and the lower abdomen. […] Signal detected in the lower abdomen reached maximum intensity 60-90 min after treatment. […] When the pharmacokinetics of CB3988 and ICI 198583 were compared the only significant difference was in the alpha phase half life which was 2-fold faster for CB3988. […] This is in contrast to N'?-propargyl-5,8-dideazafolic acid, where delayed excretion is associated with hepatic and renal toxicities. The ability to study CB3988 pharmacokinetics non-invasively by '9F-NMR spectroscopy confirms the utility of the technique and, since '9F-NMR can be applied directly to clinical investigations, it may be possible to obtain similar information in humans. It is now accepted that pharmacokinetics are an important determinant of both the activity and toxicity of anticancer drugs (Newell, 1989). This acceptance has led to the inclusion of pharmacokinetic studies in both the preclinical and early clinical evaluation of the majority of novel antitumour agents with two broad aims in mind. Firstly, the studies may be of direct clinical relevance in determining dose escalation during phase I studies (Collins et al., 1986; EORTC PAM Group, 1987) and secondly the information gained may be of value in interpreting both the toxicity and activity of the com- pound. This latter information can in turn be used to develop either new drugs or drug schedules which maximise the therapeutic potential of the agent. […] In the preclinical setting such measurements are usually performed using radio- chemicals and either autoradiographic or quantitative tissue distribution studies (Siddik & Newell, 1988). […]
# [11] = system: thymidylate synthase; design: method as in A.L. Jackman, unpublished results; settings: ref A.L. Jackman, unpublished results; cited from earlier work
# [12] = In vivo 19F-NMR spectroscopy of CB3988 in rats; settings: 100 mg kg-1 i.v.
# Source text: as §2
# [13] = design: method as in Newell et al., 1988; settings: experimental systems; ref Newell et al., 1988; cited from earlier work
# [14] = upper abdomen, cannulated and bile duct-intact
structure (smiles),measurement,setting,value
"C#CCN(Cc1ccc2nc(N)[nH]c(=O)c2c1)c1ccc(C(=O)N[C@@H](CCC(=O)O)C(=O)O)cc1 [CB3717, N10-propargyl-5,8-dideazafolic acid]",urinary excretion and persistence in kidney,[1]; 1986,delayed urinary excretion and drug still present in the kidney weeks after administration
same,nephrotoxicity,[2],nephrotoxic
same,nephrotoxicity,"[3]; ref Alison et al., 1985, Newell et al.",nephrotoxic
same,hepatotoxicity,[3]; ref Newell et al.,hepatotoxic
same,aqueous solubility,[4],poor solubility
"C#CCN(Cc1ccc2nc(C)[nH]c(=O)c2c1)c1ccc(C(=O)N[C@@H](CCC(=O)O)C(=O)O)c(C(F)(F)F)c1 [CB3988, C2-desamino-C2-methyl-N10-propargyl-2'trifluoromethyl-5,8-dideazafolic acid]","alpha phase half life, fold faster than ICI 198583",[5],2 fold
same,acute toxicity,[6],no acute toxicity
same,reduction of cytotoxicity in comparison to ICI 198583,"[7]; ref A.L. Jackman, unpublished results",14 fold
same,acute toxicity,[8],no acute toxicity
same,time by which urinary excretion is essentially complete,[9]; NMR signal in bladder,≤ 1 h
same,time at which NMR signal in the lower abdomen reached maximum intensity,[9]; lower abdomen,60 to 90 min
same,metabolites (additional peaks) in NMR spectrum,[9]; upper abdomen,No clear evidence of the presence of additional peaks
same,time at which NMR signal from the upper abdomen reached maximum intensity,[9]; upper abdomen,10 to 40 min
same,half-life,"[9]; mouse, upper abdomen (in vivo NMR signal), iv, analysis period 40-120 min, mean ± s.d. of three mice, read-out: half life for the decline of NMR signal from the upper abdomen (overall mean)",28 min
same,"CB3988 concentration in bile and urine, molar",[10],40 to 60 mM
same,CB3988 concentration in liver and small intestines,[10]; 30 and 60 min,> 1 mg g-1 wet weight
same,CB3988 concentration in bile and urine (gall bladder and urinary bladder),"[10]; 30 and 60 min, HPLC",20 to 30 mg/mL
same,Conc. large intestine,"[10]; 60 min, large intestine (ND)",< 0.02 mg g-1 wet weight
same,reduction of inhibitory activity towards thymidylate synthase in comparison to ICI 198583,[11],7 fold
same,metabolites in NMR spectra,[12]; intact and cannulated bile ducts,no metabolites being detected
same,time by which NMR signal reached the limit of detection,"[12]; upper abdomen, bile duct cannulated",15 to 20 min
same,time after bolus dose at which NMR signal was detected,[12]; [14],up to 2 min
same,time by which NMR signal intensity reached a maximum value,[12]; [14],≤ 10 min
same,half-life,"[12]; rat, iv, upper abdomen, three bile duct cannulated rats, read-out: half-life for the decline in the NMR signal, individual rats",5.6 min
"C#CCN(Cc1ccc2nc(C)[nH]c(=O)c2c1)c1ccc(C(=O)N[C@@H](CCC(=O)O)C(=O)O)cc1 [ICI 198583, C2-desamino-C2-methyl-N10-propargyl-5,8-dideazafolic acid]",retention in liver and kidney,[1]; 1988,not retained in either the liver or the kidney
same,potency in cytotoxicity studies relative to CB3717,"[7]; ref Hughes et al., 1988, Jackman et al.",markedly more potent than CB3717
same,acute liver and kidney toxicity,[13],devoid of acute liver and kidney toxicity
same,aqueous solubility,[4],greatly enhanced aqueous solubility compared to CB3717
